ChEMBL document CHEMBL1201862, “PubChem BioAssay data set” (2004)
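Dose response: 5 concentrations. Exposure: 48 h. Format: 96-well plates. Endpoint: linear interpolation; highest concentration if not reached. GI50 marks 50% less growth.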 Calls of active or inactive are those of the source. Rule as the data show it: active = GI50 up to about 1.1 µM and inactive = higher.

How the values were obtained:
Assay in all cases: growth of human tumour cells (NCI), 48 h
SF-268 = tested on: SF-268
NCI-H522 = tested on: NCI-H522
M14 = tested on: M14
SNB-19 = tested on: SNB-19
HCT-116 = tested on: HCT-116
ACHN = tested on: ACHN
NCI-H460 = tested on: NCI-H460
CCRF-CEM = tested on: CCRF-CEM
UACC-257 = tested on: UACC-257
EKVX = tested on: EKVX
OVCAR-8 = tested on: OVCAR-8
SW-620 = tested on: SW-620
LOX IMVI = tested on: LOX IMVI
Malme-3M = tested on: Malme-3M
U-251 = tested on: U-251
A549 = tested on: A549
OVCAR-4 = tested on: OVCAR-4
RXF 393 = tested on: RXF 393
TK-10 = tested on: TK-10

Structure (SMILES) | GI50 (SF-268) | GI50 (NCI-H522) | GI50 (M14) | GI50 (SNB-19) | GI50 (HCT-116) | GI50 (ACHN) | GI50 (NCI-H460) | GI50 (CCRF-CEM) | GI50 (UACC-257) | GI50 (EKVX) | GI50 (OVCAR-8) | GI50 (SW-620) | GI50 (LOX IMVI) | GI50 (Malme-3M) | GI50 (U-251) | GI50 (A549) | GI50 (OVCAR-4) | GI50 (RXF 393) | GI50 (TK-10)
CC1(C)Cc2c(oc3ncnc(N)c23)CS1 | > 100 µM (inactive) | > 100 µM (inactive) | > 100 µM (inactive) | > 100 µM (inactive) | > 100 µM (inactive) | > 100 µM (inactive) | > 100 µM (inactive) | > 100 µM (inactive) | > 100 µM (inactive) | > 100 µM (inactive) | > 100 µM (inactive) | > 100 µM (inactive) | > 100 µM (inactive) | > 100 µM (inactive) | > 100 µM (inactive) | > 100 µM (inactive) | > 100 µM (inactive) | – | –
CC1CC/C(=C\c2ccc(F)cc2)C2=C1C(c1ccc(F)cc1)NC(=S)N2 (configuration not stated) | 91.4 µM (inactive) | – | 50.9 µM (inactive) | > 100 µM (inactive) | 32.9 µM (inactive) | 54.3 µM (inactive) | 20.4 µM (inactive) | 68.5 µM (inactive) | 43.2 µM (inactive) | 12.9 µM (inactive) | 86.7 µM (inactive) | 80.4 µM (inactive) | 48.2 µM (inactive) | 36.7 µM (inactive) | 61.4 µM (inactive) | – | – | 25.2 µM (inactive) | 79.3 µM (inactive)
CC(=O)c1cccc(C)c1C(=O)O | > 100 µM (inactive) | > 100 µM (inactive) | > 100 µM (inactive) | > 100 µM (inactive) | > 100 µM (inactive) | > 100 µM (inactive) | > 100 µM (inactive) | > 100 µM (inactive) | > 100 µM (inactive) | > 100 µM (inactive) | > 100 µM (inactive) | > 100 µM (inactive) | > 100 µM (inactive) | > 100 µM (inactive) | > 100 µM (inactive) | > 100 µM (inactive) | > 100 µM (inactive) | > 100 µM (inactive) | > 100 µM (inactive)
CC(C)N(C(=O)C12C3C4C1C1C2C3C41C(=O)N(C(C)C)C(C)C)C(C)C (configuration not stated) | > 50 µM (inactive) | > 50 µM (inactive) | > 50 µM (inactive) | > 50 µM (inactive) | > 50 µM (inactive) | > 50 µM (inactive) | > 50 µM (inactive) | > 50 µM (inactive) | > 50 µM (inactive) | > 50 µM (inactive) | > 50 µM (inactive) | > 50 µM (inactive) | > 50 µM (inactive) | > 50 µM (inactive) | > 50 µM (inactive) | > 50 µM (inactive) | > 50 µM (inactive) | – | > 50 µM (inactive)
OCC(O)C(OC1OC(CO)C(O)C(O)C1O)c1nn(-c2ccc(Cl)cc2)c2nc3cc(Cl)ccc3nc12 (configuration not stated) | > 100 µM (inactive) | > 100 µM (inactive) | > 100 µM (inactive) | > 100 µM (inactive) | > 100 µM (inactive) | > 100 µM (inactive) | > 100 µM (inactive) | > 100 µM (inactive) | > 100 µM (inactive) | > 100 µM (inactive) | > 100 µM (inactive) | – | > 100 µM (inactive) | > 100 µM (inactive) | > 100 µM (inactive) | – | > 100 µM (inactive) | > 100 µM (inactive) | > 100 µM (inactive)
O=C1C=C(c2ccccc2)NC1(c1ccccc1)c1cc(-c2ccccc2)[nH]c1-c1ccccc1 (configuration not stated) | – | – | > 100 µM (inactive) | > 100 µM (inactive) | > 100 µM (inactive) | > 100 µM (inactive) | > 100 µM (inactive) | > 100 µM (inactive) | > 100 µM (inactive) | > 100 µM (inactive) | > 100 µM (inactive) | > 100 µM (inactive) | – | – | > 100 µM (inactive) | > 100 µM (inactive) | > 100 µM (inactive) | 0.182 µM (active) | –
COc1ccc(S(=O)(=O)NNS(C)(=O)=O)cc1OC | 79.4 µM (inactive) | > 100 µM (inactive) | > 100 µM (inactive) | > 100 µM (inactive) | – | > 100 µM (inactive) | > 100 µM (inactive) | > 100 µM (inactive) | > 100 µM (inactive) | > 100 µM (inactive) | > 100 µM (inactive) | > 100 µM (inactive) | > 100 µM (inactive) | > 100 µM (inactive) | > 100 µM (inactive) | > 100 µM (inactive) | > 100 µM (inactive) | 31.3 µM (inactive) | > 100 µM (inactive)
NCCN1CCCCCc2ccccc21 | > 10 µM (inactive) | > 10 µM (inactive) | – | > 10 µM (inactive) | > 10 µM (inactive) | > 10 µM (inactive) | > 10 µM (inactive) | > 10 µM (inactive) | > 10 µM (inactive) | > 10 µM (inactive) | > 10 µM (inactive) | > 10 µM (inactive) | > 10 µM (inactive) | > 10 µM (inactive) | > 10 µM (inactive) | > 10 µM (inactive) | > 10 µM (inactive) | > 10 µM (inactive) | > 10 µM (inactive)
